The test system of data set [1] is HUVEC. The data set can be described thus: Antiangiogenic activity in HUVEC assessed as inhibition of cell morphogenesis by measuring reduction in capillary like structure formation at 10 uM after 6 hrs by inverted microscopic method. To be noted: Homo sapiens. Format: functional, cell-based.
Data set [2] relates to HUVEC. The data set can be described thus: Cytotoxicity against HUVEC assessed as reduction in cell viability at 20 uM up to 96 hrs by MTT assay. Format: cell-based. The conditions noted are these: human.
Data set [3] deals with HUVEC. The data set can be described thus: Anti-invasive activity in HUVEC at 10 uM after 24 hrs by DAPI staining based Boyden chamber method. Format: functional, cell-based. The conditions noted are these: Homo sapiens.
Data set [4] relates to HUVEC. The experiment in a line: Antiangiogenic activity in fibronectin pretreated HUVEC assessed as reduction in cell adhesion at 10 uM after 90 mins by DAPI staining based microscopic method. Format: functional. To be noted: Homo sapiens.
Data set [5] relates to HUVEC. The data set can be described thus: Antimigratory activity in HUVEC at 10 uM after 6 hrs by DAPI staining based Boyden chamber method. To be noted: Homo sapiens. Type of data set: functional, cell-based.
The test system of data set [6] is HUVEC. The data set can be described thus: Cytotoxicity against HUVEC assessed as induction of apoptosis at 10 uM after 24 hrs by Annexin V/7-AAD staining based flow cytometry. To be noted: human. Type of data set: cell-based.
For data set [7], the system named is HUVEC. The data set can be described thus: Cytotoxicity against HUVEC assessed as reduction in cell viability up to 20 uM up to 96 hrs by MTT assay. Type of data set: cell-based. The conditions noted are these: human.
The subject of data set [8] is HUVEC. The experiment in a line: Cytotoxicity against HUVEC assessed as reduction in cell viability at 10 uM after 96 hrs by MTT assay. Type of data set: cell-based. The conditions noted are these: human.

Molecules are shown by their SMILES. The source made the active and inactive calls. The calls are words filed in the database; no cut-off is given here.

In the case of `COCOc1cc(OC)c(C(=O)/C=C/c2ccc([N+](=O)[O-])cc2)c(O)c1CC=C(C)C`, the “Antiangiogenic activity (active/not active)” value with HUVEC [1] is “Active”. Also, the Activity result in the data set on HUVEC [2] and in the data set with HUVEC [6] was “Toxic” throughout. The outcome in the data set with HUVEC [3] was inactive. Besides, the result in the data set on HUVEC [4] and in the data set with HUVEC [5] was Active.

For the molecule `COc1ccc(/C=C/C(=O)c2c(OC)cc(O)c(CC=C(C)C)c2O)cc1F`, in the data set with HUVEC [1], the “Antiangiogenic activity (active/not active)” value was “Active”. Further, the outcome in the data set with HUVEC [3] was inactive. Besides, the result in the data set with HUVEC [4] and in the data set with HUVEC [5] was Active.

Take `COc1cc(O)c(CC=C(C)C)c(O)c1C(=O)/C=C/c1ccc(O)cc1` [XANTHOHUMOL]: in the data set with HUVEC [1], the “Antiangiogenic activity (active/not active)” value was “Active”. The Activity result with HUVEC [2] is “Toxic”. In addition, the result with HUVEC [3], with HUVEC [4] and with HUVEC [5] was Active.

For `COCOc1cc(OC)c(C(=O)/C=C/c2ccccc2F)c(O)c1CC=C(C)C`, in the data set with HUVEC [1], the “Antiangiogenic activity (active/not active)” value was “Active”. Further, the result in the data set with HUVEC [4] was Active.

With `COCOc1cc(OC)c(C(=O)/C=C/c2ccc(F)cc2)c(O)c1CC=C(C)C`, the outcome in the data set with HUVEC [3] was inactive. Moreover, the outcome in the data set with HUVEC [5] was Active.

Take `COc1cc(O)c(CC=C(C)C)c(O)c1C(=O)/C=C/c1ccccc1F`: the “Antiangiogenic activity (active/not active)” value in the data set on HUVEC [1] is “Active”. The result with HUVEC [4] was Active.

On to `COCOc1cc(OC)c(C(=O)/C=C/c2ccc(OC)cc2F)c(O)c1CC=C(C)C`, for which the Activity result with HUVEC [7] is reported as “Non-Toxic”. The “Antiangiogenic activity (active/not active)” value in the data set on HUVEC [1] is “Active”. Further, in the data set on HUVEC [3], the outcome was inactive. For the same molecule, the outcome with HUVEC [4] was Active.

Regarding `COc1ccc(/C=C/C(=O)c2c(OC)cc(O)c(CC=C(C)C)c2O)c(F)c1`, the “Antiangiogenic activity (active/not active)” value in the data set with HUVEC [1] was “Active”. Moreover, in the data set on HUVEC [2], the Activity result was “Toxic”. Further, the result in the data set on HUVEC [3] was inactive. Also, the result with HUVEC [4] and in the data set on HUVEC [5] was Active.

As for `COCOc1cc(OC)c(C(=O)/C=C/c2ccc(OC)c(F)c2)c(O)c1CC=C(C)C`, the “Antiangiogenic activity (active/not active)” value in the data set on HUVEC [1] is “Active”. The result in the data set on HUVEC [3] was inactive. Further, the outcome in the data set with HUVEC [4] and in the data set on HUVEC [5] was Active.

With `COCOc1cc(OC)c(C(=O)/C=C/c2ccc(OC)c(F)c2)c(OCOC)c1CC=C(C)C`, in the data set with HUVEC [1], the “Antiangiogenic activity (active/not active)” value was “Active”. The outcome in the data set with HUVEC [3] was inactive. The outcome in the data set on HUVEC [4] and in the data set on HUVEC [5] was Active. The Activity entry with HUVEC [8] is given as “Toxic”.

Consider `COCOc1cc(OC)c(C(=O)/C=C/c2ccc(OC)cc2F)c(OCOC)c1CC=C(C)C`, for which, in the data set on HUVEC [1], the “Antiangiogenic activity (active/not active)” value is “Active”. Further, in the data set with HUVEC [3], the outcome was inactive. In addition, the result in the data set with HUVEC [4] and in the data set on HUVEC [5] was Active. Moreover, in the data set with HUVEC [8], the Activity result is “Toxic”.

On to `COc1cc(O)c(CC=C(C)C)c(O)c1C(=O)/C=C/c1ccc(F)cc1`, for which, in the data set with HUVEC [1], the “Antiangiogenic activity (active/not active)” value is “Active”. The outcome in the data set on HUVEC [3] was inactive. Also, the outcome with HUVEC [4] and in the data set on HUVEC [5] was Active.
